Three compounds from patent publication US20230278972A1, “SUBSTITUTED HALOALKYL SULFONANILIDE HERBICIDES” (FMC Corporation, priority 2020, published 2023) can be followed below.

Structures are written as SMILES.

Type in all cases: in vivo
Assay [1] concerns blackgrass (Alopecurus myosuroides). As to the kind of experiment: Test A postemergence, blackgrass. Conditions: Postemergence, 0 to 100 scale (0 no effect, 100 complete control); for Plant response rating, Blackgrass: 125 g ai/ha; for Blackgrass plant response rating: 500 g ai/ha, visual injury vs untreated controls after approx. 10 days. An excerpt:
(§1) Seeds of plant species selected from barnyardgrass (Echinochloa crus-galli), kochia (Bassia scoparia), ragweed (common ragweed, Ambrosia artemisiifolia), Ryegrass, Italian (Italian ryegrass, Lolium multiflorum), Foxtail, Giant (giant foxtail, Setaria faberi), and pigweed (Amaranthus retroflexus) were planted into a blend of loam soil and sand and treated preemergence with a directed soil spray using test chemicals formulated in a non-phytotoxic solvent mixture which included a surfactant. At the same time, plants selected from these weed species and also wheat (Triticum aestivum), corn (Zea mays), blackgrass (Alopecurus myosuroides), and galium (catchweed bedstraw, Galium aparine) were planted in pots containing the same blend of loam soil and sand and treated with postemergence applications of test chemicals formulated in the same manner. Plants ranged in height from 2 to 10 cm and were in the one- to two-leaf stage for the postemergence treatment. […] A dash (-) response means no test result.

Assay [2] has as its system barnyardgrass (Echinochloa crus-galli). The experiment in a line: Test A postemergence, barnyardgrass. As to conditions: Postemergence, 0 to 100 scale (0 no effect, 100 complete control); for Plant response rating, Barnyardgrass: 125 g ai/ha; for Barnyardgrass plant response rating: 500 g ai/ha, visual injury vs untreated controls after approx. 10 days.
Excerpt: as §1

Assay [3] concerns Ryegrass, Italian (Italian ryegrass, Lolium multiflorum). As to the kind of experiment: Test A preemergence, Ryegrass, Italian. Conditions: Preemergence; for Ryegrass, Italian plant response rating: 125 g ai/ha, visual injury on 0 to 100 scale (0 no effect, 100 complete control), approximately 10 days; for Plant response rating, Ryegrass, Italian: 500 g ai/ha, 0 to 100 scale (0 no effect, 100 complete control).
Excerpt: as §1

For assay [4], the system named is ragweed (common ragweed, Ambrosia artemisiifolia). The experiment in a line: Test A postemergence, ragweed. As to conditions: Postemergence, 0 to 100 scale (0 no effect, 100 complete control); for Plant response rating, Ragweed: 125 g ai/ha; for Ragweed plant response rating: 500 g ai/ha, visual injury vs untreated controls after approx. 10 days.
Excerpt: as §1

For assay [5], the system named is Foxtail, Giant (giant foxtail, Setaria faberi). The experiment in a line: Test A postemergence, Foxtail, Giant. Conditions: Postemergence, 0 to 100 scale (0 no effect, 100 complete control); for Plant response rating, Foxtail, Giant: 125 g ai/ha; for Foxtail, Giant plant response rating: 500 g ai/ha, visual injury vs untreated controls after approx. 10 days.
Excerpt: as §1

Assay [6] relates to Ryegrass, Italian (Italian ryegrass, Lolium multiflorum). As to the kind of experiment: Test A postemergence, Ryegrass, Italian. As to conditions: Postemergence, 0 to 100 scale (0 no effect, 100 complete control); for Plant response rating, Ryegrass, Italian: 125 g ai/ha; for Ryegrass, Italian plant response rating: 500 g ai/ha, visual injury vs untreated controls after approx. 10 days.
Excerpt: as §1

The subject of assay [7] is barnyardgrass (Echinochloa crus-galli). The experiment in a line: Test A preemergence, barnyardgrass. As to conditions: Preemergence; for Barnyardgrass plant response rating: 125 g ai/ha, visual injury on 0 to 100 scale (0 no effect, 100 complete control), approximately 10 days; for Plant response rating, Barnyardgrass: 500 g ai/ha, 0 to 100 scale (0 no effect, 100 complete control).
Excerpt: as §1

Assay [8] relates to ragweed (common ragweed, Ambrosia artemisiifolia). The experiment in a line: Test A preemergence, ragweed. As to conditions: Preemergence; for Ragweed plant response rating: 125 g ai/ha, visual injury on 0 to 100 scale (0 no effect, 100 complete control), approximately 10 days; for Plant response rating, Ragweed: 500 g ai/ha, 0 to 100 scale (0 no effect, 100 complete control).
Excerpt: as §1

The subject of assay [9] is corn (Zea mays). As to the kind of experiment: Test A postemergence, corn. As to conditions: Postemergence, 0 to 100 scale (0 no effect, 100 complete control); for Plant response rating, Corn: 125 g ai/ha; for Corn plant response rating: 500 g ai/ha, visual injury vs untreated controls after approx. 10 days.
Excerpt: as §1

Assay [10] has as its system Foxtail, Giant (giant foxtail, Setaria faberi). As to the kind of experiment: Test A preemergence, Foxtail, Giant. Conditions: Preemergence; for Foxtail, Giant plant response rating: 125 g ai/ha, visual injury on 0 to 100 scale (0 no effect, 100 complete control), approximately 10 days; for Plant response rating, Foxtail, Giant: 500 g ai/ha, 0 to 100 scale (0 no effect, 100 complete control).
Excerpt: as §1

The subject of assay [11] is kochia (Bassia scoparia). As to the kind of experiment: Test A postemergence, kochia. As to conditions: Postemergence, 0 to 100 scale (0 no effect, 100 complete control); for Plant response rating, Kochia: 125 g ai/ha; for Kochia plant response rating: 500 g ai/ha, visual injury vs untreated controls after approx. 10 days.
Excerpt: as §1

The subject of assay [12] is galium (catchweed bedstraw, Galium aparine). The experiment in a line: Test A postemergence, galium. As to conditions: Postemergence, 0 to 100 scale (0 no effect, 100 complete control); for Plant response rating, Galium: 125 g ai/ha; for Galium plant response rating: 500 g ai/ha, visual injury vs untreated controls after approx. 10 days.
Excerpt: as §1

In assay [13] the test system is pigweed (Amaranthus retroflexus). As to the kind of experiment: Test A postemergence, pigweed. Conditions: Postemergence, 0 to 100 scale (0 no effect, 100 complete control); for Plant response rating, Pigweed: 125 g ai/ha; for Pigweed plant response rating: 500 g ai/ha, visual injury vs untreated controls after approx. 10 days.
Excerpt: as §1

Assay [14] relates to wheat (Triticum aestivum). As to the kind of experiment: Test A postemergence, wheat. Conditions: Postemergence, 0 to 100 scale (0 no effect, 100 complete control); for Plant response rating, Wheat: 125 g ai/ha; for Wheat plant response rating: 500 g ai/ha, visual injury vs untreated controls after approx. 10 days.
Excerpt: as §1

The test system of assay [15] is kochia (Bassia scoparia). As to the kind of experiment: Test A preemergence, kochia. As to conditions: Preemergence; for Kochia plant response rating: 125 g ai/ha, visual injury on 0 to 100 scale (0 no effect, 100 complete control), approximately 10 days; for Plant response rating, Kochia: 500 g ai/ha, 0 to 100 scale (0 no effect, 100 complete control).
Excerpt: as §1

In the case of `Cc1cc(C)c(C2=NOC3(C2)CC(C)OC(C)C3)cc1NS(=O)(=O)C(F)(F)F` (single isomer, unassigned) [Compound 171], in assay [1], the “Plant response rating, Blackgrass” value worked out at 40 and the “Blackgrass plant response rating” value was found to be 80. Further, in [2], the “Plant response rating, Barnyardgrass” value was determined as 90 and the “Barnyardgrass plant response rating” value is recorded as 90. In addition, in [3], the “Ryegrass, Italian plant response rating” value amounted to 100 and the “Plant response rating, Ryegrass, Italian” value is listed as 100. Moreover, in assay [4], the “Plant response rating, Ragweed” value is reported as 40 and the “Ragweed plant response rating” value was found to be 90. For the same compound, in assay [5], the “Plant response rating, Foxtail, Giant” value was 60 and the “Foxtail, Giant plant response rating” value is listed as 90. For the same compound, in assay [6], the “Plant response rating, Ryegrass, Italian” value is recorded as 80 and the “Ryegrass, Italian plant response rating” value is 80. Also, in assay [7], the “Barnyardgrass plant response rating” value is recorded as 90 and the “Plant response rating, Barnyardgrass” value came out at 100. Besides, in assay [8], the “Ragweed plant response rating” value was found to be 80 and the “Plant response rating, Ragweed” value is 90. Besides, in [9], the “Plant response rating, Corn” value turned out to be 80 and the “Corn plant response rating” value stood at 80. Moreover, in assay [10], the “Foxtail, Giant plant response rating” value is given as 100 and the “Plant response rating, Foxtail, Giant” value is 100. In [11], the “Plant response rating, Kochia” value is recorded as 30 and the “Kochia plant response rating” value is 70. In assay [12], the “Plant response rating, Galium” value is 60 and the “Galium plant response rating” value amounted to 90. Further, in [13], the “Plant response rating, Pigweed” value is 60 and the “Pigweed plant response rating” value is given as 80. Also, in assay [14], the “Plant response rating, Wheat” value was 60 and the “Wheat plant response rating” value worked out at 60. In assay [15], the “Kochia plant response rating” value was found to be 70 and the “Plant response rating, Kochia” value was 90.
For `Cc1cc(C)c(C2=NOC3(C2)CC(C)OC(C)C3)cc1NS(=O)(=O)C(F)(F)F` (single isomer, unassigned) [Compound 173], in assay [1], the “Plant response rating, Blackgrass” value came out at 50 and the “Blackgrass plant response rating” value amounted to 60. In addition, in assay [2], the “Plant response rating, Barnyardgrass” value was determined as 80 and the “Barnyardgrass plant response rating” value is 90. Moreover, in [3], the “Ryegrass, Italian plant response rating” value amounted to 90 and the “Plant response rating, Ryegrass, Italian” value came to 100. Besides, in assay [4], the “Plant response rating, Ragweed” value came to 80 and the “Ragweed plant response rating” value is 90. Moreover, in assay [5], the “Plant response rating, Foxtail, Giant” value was 90 and the “Foxtail, Giant plant response rating” value is on record as 90. Also, in assay [6], the “Plant response rating, Ryegrass, Italian” value was 70 and the “Ryegrass, Italian plant response rating” value is on record as 80. Further, in assay [7], the “Barnyardgrass plant response rating” value turned out to be 90 and the “Plant response rating, Barnyardgrass” value is given as 90. In assay [8], the “Ragweed plant response rating” value came to 90 and the “Plant response rating, Ragweed” value was 90. Besides, in assay [9], the “Plant response rating, Corn” value was found to be 70 and the “Corn plant response rating” value worked out at 80. In [10], the “Foxtail, Giant plant response rating” value came out at 100 and the “Plant response rating, Foxtail, Giant” value worked out at 100. Moreover, in assay [11], the “Plant response rating, Kochia” value amounted to 50 and the “Kochia plant response rating” value was 80. For the same compound, in assay [12], the “Plant response rating, Galium” value came to 90 and the “Galium plant response rating” value is on record as 90. For the same compound, in assay [13], the “Plant response rating, Pigweed” value is recorded as 80 and the “Pigweed plant response rating” value stood at 90. Further, in assay [14], the “Plant response rating, Wheat” value turned out to be 70 and the “Wheat plant response rating” value is on record as 70. Further, in [15], the “Kochia plant response rating” value is listed as 60 and the “Plant response rating, Kochia” value was found to be 90.
For the compound `COC1CCN(C(=O)c2cc(N(S(=O)(=O)C(F)(F)F)S(=O)(=O)C(F)(F)F)c(C)cc2C)C1` (stereo not shown) [Compound 138], the “Plant response rating, Ragweed” value in assay [4] is given as 30. Also, the “Plant response rating, Ryegrass, Italian” value in assay [6] was 0. Moreover, the “Plant response rating, Pigweed” value in assay [13] is given as 90. For the same compound, the “Plant response rating, Wheat” value in [14] is listed as 30.
